{"source": "patent US7553823B2", "about": "“C-pyrazole A2A receptor agonists” (CV Therapeutics, Inc., priority 1999, dated 2009)", "key": {"A1 AdoR [1]": {"target": "T1, A1 AdoR (Rattus norvegicus, UniProt P25099)", "T1 construct": "from tissue; host or cells: Sprague Dawley rat isolated perfused heart", "T1 sequence (P25099 1-326)": "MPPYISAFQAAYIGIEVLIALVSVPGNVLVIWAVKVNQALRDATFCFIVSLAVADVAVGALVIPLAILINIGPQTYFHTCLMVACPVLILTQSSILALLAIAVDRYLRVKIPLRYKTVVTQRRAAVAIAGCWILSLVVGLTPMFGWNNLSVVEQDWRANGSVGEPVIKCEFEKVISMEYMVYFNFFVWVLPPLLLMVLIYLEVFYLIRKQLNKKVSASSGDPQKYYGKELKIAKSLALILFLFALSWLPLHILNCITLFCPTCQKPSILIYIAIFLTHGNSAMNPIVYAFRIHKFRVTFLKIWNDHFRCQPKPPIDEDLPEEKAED", "experiment": "A-V nodal conduction time (negative dromotropic effect) in rat isolated perfused hearts", "conditions": "Compound 18 0.1-30 μM, CVT510 100-400 nM", "method": "In experiments in which A1 adenosine receptor-mediated negative dromotropic effect was measured, atrial and ventricular surface electrograms were recorded during constant atrial pacing. The effect of various adenosine receptor agonists on atrioventricular conduction time was determined as described previously by Jenkins and Belardinelli Circ. Res. 63: 97-116 (1988).\n(§1) Rats and guinea pigs, of either sex weighing from 230 to 260 grams and 300 to 350 grams, respectively, were used in this study. Animals were anesthetized by peritoneal injection of a cocktail containing ketamine and xylazine (ketamine 100 mg, xylazine 20 mg/ml). The chest was opened and the heart quickly removed. The heart was briefly rinse in ice-cold Krebs-Henseleit solution (see below), and the aorta cannulated. […]\n(§2) A1 adenosine receptor-mediated depression of A-V nodal conduction time (negative dromotropic effect) was measured. Atrial and ventricular surface electrograms in rats and H is bundle electrogram in guinea pigs, were recorded during constant atrial pacing. The effects of Compound 18 on atrioventricular conduction time and stimulus-to-His-bundle (S-H interval) were determined as described previously by Jenkins and Belardinelli (1988).\nThe effects of Compound 18 on coronary conductance (A2A effect) and atrioventricular conduction time or stimulus-to-His-bundle (S-H) interval (A1 effect) was then determined. […]"}, "A2A adenosine receptor": {"target": "A2A adenosine receptor (Rattus norvegicus, UniProt P30543)", "sequence (P30543 whole entry, the tested form may be a part)": "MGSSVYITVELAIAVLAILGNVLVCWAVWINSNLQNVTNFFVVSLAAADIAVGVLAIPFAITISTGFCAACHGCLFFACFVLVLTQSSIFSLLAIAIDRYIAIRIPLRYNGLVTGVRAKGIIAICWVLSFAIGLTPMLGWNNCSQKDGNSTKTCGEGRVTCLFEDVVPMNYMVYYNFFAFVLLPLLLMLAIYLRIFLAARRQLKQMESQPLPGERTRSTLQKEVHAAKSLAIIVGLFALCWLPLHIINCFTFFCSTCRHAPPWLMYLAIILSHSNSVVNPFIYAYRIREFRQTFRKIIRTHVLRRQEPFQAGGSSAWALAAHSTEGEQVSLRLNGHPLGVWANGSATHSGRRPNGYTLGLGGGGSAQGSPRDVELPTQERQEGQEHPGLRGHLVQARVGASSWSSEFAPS", "experiment": "Reversal time of coronary vasodilation after bolus injection in rat isolated perfused hearts", "conditions": "rat isolated perfused hearts, bolus into perfusion line", "description": "Animals were anesthetized by peritoneal injection of a cocktail containing ketamine and xylazine (ketamine 100 mg, xylazine 20 mg/ml). The chest was opened and the heart quickly removed. The heart was briefly rinse in ice-cold Krebs-Henseleit solution (see below), and the aorta cannulated. […] The heart was electrically paced at a fixed cycle length of 340 ms (250 beats/min) using a bipolar electrode place on the left atrium. The electrical stimuli were generated by a Grass stimulator (Model S48, W. Warwick, R.I) and delivered through a Stimuli Isolation Unit (Model SIU5, Astro-Med, Inc., NY) as square-wave pulses of 3 msec in duration and amplitude of at least twice the threshold intensity.\nCoronary perfusion pressure (CPP) was measured using a pressure transducer, connected to the aortic cannula via a T-connector positioned approximately 3 cm above the heart. Coronary perfusion pressure was monitored throughout the experiment and recorded either on a chart recorder (Gould Recorder 2200S) or a computerized recording system (PowerLab/4S, ADInstruments Pty Ltd, Australia). Only hearts with CPP ranging from 60 to 85 mmHg (in the absence of drugs) were used in the study.\nProtocol: Bolus injections. […] The times to 50% (t 0.5) and 90% (t 0.9) reversal of the decrease in CPP were measured. Each heart was exposed to a maximum of three vasodilators."}, "human A1 AdoR": {"target": "T2, human A1 AdoR (Homo sapiens, UniProt P30542)", "T2 construct": "expressed in transfected cells", "T2 sequence (P30542 1-326)": "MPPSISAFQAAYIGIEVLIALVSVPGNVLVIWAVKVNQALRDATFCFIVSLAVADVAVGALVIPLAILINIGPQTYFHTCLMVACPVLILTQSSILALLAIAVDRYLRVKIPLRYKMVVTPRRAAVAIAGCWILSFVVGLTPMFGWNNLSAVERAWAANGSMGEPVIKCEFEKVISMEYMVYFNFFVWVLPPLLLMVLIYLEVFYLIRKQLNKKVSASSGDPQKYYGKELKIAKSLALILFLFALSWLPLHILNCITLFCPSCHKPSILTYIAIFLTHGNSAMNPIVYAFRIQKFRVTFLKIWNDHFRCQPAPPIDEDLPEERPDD", "experiment": "Competition binding, [3H]DPCPX binding sites on CHO-hA1AdoR cell membranes", "conditions": "Gpp(NH)p 100 μM"}, "A2A AdoR [2]": {"tested_on": "A2A AdoR", "experiment": "Coronary blood flow and reversal time of coronary vasodilation in open-chest anesthetized pigs", "conditions": "pig, intracoronary infusion 50 μg/kg/min", "description": "Farm pigs weighing 22-27 kg were used in this study. […] In addition, animals were used in accordance with the guidelines of the University of Kentucky Institutional Animal Care and Use Protocol.\nAnesthesia was anesthetized with ketamine (20 mg/kg, i.m.) and sodium pentobarbital (15-18 mg/kg i.v.). Anesthesia was maintained with additional sodium pentobarbital (1.5-2 mg/kg, i.v.) every 15-20 minutes. Ventilation was maintained via a tracheotomy using a mixture of room air and 100% O2. Tidal volume, respiratory rate and fraction of O2 in inspired air were adjusted to maintain normal arterial blood gas (ABG) and pH values. […] Lactate Ringers solution was administered via an ear or femoral vein, at 5-7 ml/kg/min after a initial bolus of 300-400 ml. A catheter was inserted into the femoral artery to monitor arterial blood pressure and to obtain ABG samples.\nThe heart was exposed through a median sternotomy, and suspended in a pericardial cradle. Left ventricular pressure (LVP) was measured with a 5F high fidelity pressure sensitive tip transducer (Millar Instruments, Houston, Tex.) placed in the left ventricular cavity via the apex and secured with a purse string suture. A segment of the left anterior descending coronary artery (LAD), proximal to the origin of the first diagonal branch, was dissected free of, surrounding tissue. A transmit time perivascular flow probe (Transonic Systems Inc., Ithaca, N.Y.) was placed around this segment to measure coronary blood flow (CBF). Proximal to the flow probe a 24 g modified angiocatheter was inserted for intracoronary infusions. […] A2A AdoR agonists were dissolved in DMSO to produce stock concentrations of 1-5 mM, which were diluted in 0.9% saline and infused at rates of 1-1.5 ml/min. The A2A AdoR agonists were administered intracoronary. To maintain blood pressure constant, phenylephrine was administered intravenously. The phenylephrine stock solution (30 mM) was prepared in distilled water.\nPrior to initiating the experiment, a 30-minute stabilization period followed the completion of all instrumentation. After obtaining the baseline hemodynamic data the first intracoronary infusion of an A2A ADOR agonist was initiated. Infusions were maintained for 4-5 minutes to allow LAD CBF to reach a steadystate, after which the infusion was terminated. The time to recovery of 50% (t 0.5) and 90% (t 0.9) of baseline CBF were recorded. Ten to 15 minutes after CBF returned to pre-drug values a second infusion with a different agonist was started. […] The effect of a maximum of three different agonists was determined in each experiment."}, "A2A AdoR [3]": {"target": "A2A AdoR (Cavia porcellus, UniProt P46616)", "sequence (P46616 whole entry, the tested form may be a part)": "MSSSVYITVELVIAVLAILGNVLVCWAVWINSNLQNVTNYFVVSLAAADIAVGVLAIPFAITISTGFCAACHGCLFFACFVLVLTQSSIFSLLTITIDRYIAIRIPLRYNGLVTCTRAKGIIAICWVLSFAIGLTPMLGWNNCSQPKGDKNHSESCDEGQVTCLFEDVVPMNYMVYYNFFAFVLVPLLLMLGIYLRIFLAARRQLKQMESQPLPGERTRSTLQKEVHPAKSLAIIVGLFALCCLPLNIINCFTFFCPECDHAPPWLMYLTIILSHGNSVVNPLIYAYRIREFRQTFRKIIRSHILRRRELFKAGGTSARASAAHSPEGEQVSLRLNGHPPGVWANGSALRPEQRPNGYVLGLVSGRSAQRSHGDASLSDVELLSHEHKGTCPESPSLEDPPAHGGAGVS", "experiment": "Increase of coronary conductance in guinea pig isolated perfused hearts", "description": "(§3) Adult Sprague Dawley rats and Hartley guinea pigs of either sex weighing from 230 to 260 grams and 300 to 350 grams, respectively were used in this study. Animals were anesthetized by peritoneal injection of a cocktail containing ketamine and xylazine (ketamine 100 mg, xylazin 20 mg/ml). The chest was opened and the heart quickly removed. The heart was briefly rinse in ice-cold Krebs-Henseleit solution (see below), and the aorta cannulated. […] The heart was electrically paced at a fixed cycle length of 340 ms (250 beats/min) using a bipolar electrode place on the left atrium. The electrical stimuli were generated by a Grass stimulator (Model S48, W. Warwick, R.I.) and delivered through a Stimuli Isolation Unit (Model SIU5, Astro-Med, Inc., NY) as square-wave pulses of 3-msec in duration and amplitude of at least twice the threshold intensity.\nCoronary perfusion pressure (CPP) was measured using a pressure transducer, connected to the aortic cannula via a T-connector positioned approximately 3 cm above the heart. Coronary perfusion pressure was monitored throughout the experiment and recorded either on a chart recorder (Gould Recorder 2200S) or a computerized recording system (PowerLab/4S, ADinstruments Pty Ltd, Australia). Only hearts with CPP ranging from 60 to 85 mmHg (in the absence of drugs) were used in the study. […]"}, "human A2A AdoR": {"target": "human A2A AdoR (Homo sapiens, UniProt P29274)", "sequence (P29274 whole entry)": "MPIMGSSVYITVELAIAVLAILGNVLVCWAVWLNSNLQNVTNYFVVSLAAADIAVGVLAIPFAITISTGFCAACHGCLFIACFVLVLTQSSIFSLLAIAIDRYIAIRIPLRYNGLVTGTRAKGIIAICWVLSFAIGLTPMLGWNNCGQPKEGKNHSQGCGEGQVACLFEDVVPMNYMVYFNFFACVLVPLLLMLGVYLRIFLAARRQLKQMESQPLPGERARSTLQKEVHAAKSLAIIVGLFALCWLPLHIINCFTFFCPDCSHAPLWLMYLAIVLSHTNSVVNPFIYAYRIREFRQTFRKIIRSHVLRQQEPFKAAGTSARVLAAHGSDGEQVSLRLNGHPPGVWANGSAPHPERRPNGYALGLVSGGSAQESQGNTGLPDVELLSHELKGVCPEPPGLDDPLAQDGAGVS", "experiment": "Competition binding, [3H]ZM241385 binding sites on HEK-hA2AAR cell membranes", "conditions": "for Ki: HEK-hA2AAR Cells, [3H]ZM241385, Gpp(NH)p 100 μM", "description": "To make membranes, cells were detached from the culture plates into ice-cold 50 mmol/L Tris-HCI buffer (pH7.4). The cell suspensions were homogenized with Polytron at setting 4 for 30 seconds, and spun at 48,000 g for 15 minutes. The pellets were washed three times by re-suspension in ice-cold Tris-HCI buffer and centrifugation. The final pellet was re-suspended in a small volume of Tris-HCI, aliquoted and frozen at −80° C. until used for receptor binding assays. The protein concentration of membrane suspensions was determined using the Bradford method (Bio-Rad) with bovine serum as standards.\nAt the end of incubation, bound and free radioligands were separated by filtration through Whatman GF/C glass fiber filters using a Brandel tissue harvester (Gaithersburg, Md.). Triplicate determinations were performed for each concentration of the competing agent.\nThe affinity (Ki) of various CVT compounds for the A1 and A2A adenosine receptor were determined by their potency to compete for [^3H]CPX (A1) or [^3H]ZM241385 (A2A) binding sites on membranes derived from CHO-hA1AdoR, PC12 or HEK-HA2AAdoR cells."}, "A1 AdoR [4]": {"target": "T3, A1 AdoR (Cavia porcellus, UniProt P47745)", "T3 construct": "from tissue; host or cells: Hartley guinea pig isolated perfused heart", "T3 sequence (P47745 1-326)": "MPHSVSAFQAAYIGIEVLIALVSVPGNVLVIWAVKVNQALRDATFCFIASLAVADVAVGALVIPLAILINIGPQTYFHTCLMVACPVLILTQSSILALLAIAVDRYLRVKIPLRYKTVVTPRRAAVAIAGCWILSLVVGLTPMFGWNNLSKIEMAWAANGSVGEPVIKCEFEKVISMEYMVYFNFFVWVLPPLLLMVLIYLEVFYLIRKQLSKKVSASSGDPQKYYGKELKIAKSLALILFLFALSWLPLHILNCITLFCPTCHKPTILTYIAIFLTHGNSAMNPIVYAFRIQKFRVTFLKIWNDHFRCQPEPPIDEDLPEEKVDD", "experiment": "Stimulus-to-His-bundle (S-H) interval in guinea pig isolated perfused hearts", "conditions": "concentrations as high as 50 μM", "method": "as §1, §2\nThe effects of Compound 18 on coronary conductance (A2A effect) and atrioventricular conduction time or stimulus-to-His-bundle (S-H) interval (A1 effect) was then determined. […] In each experiment, concentration-response relationship of Compound 18 (n=5 rats, 5 guinea pigs) to increase coronary conductance and to prolong A-V conduction time or S-H interval was determined. […]"}, "A2A AdoR [5]": {"tested_on": "A2A AdoR", "experiment": "Closing statement of Example 8 on potency and efficacy as A2A AdoR agonist coronary vasodilator (test not specified)"}, "A2A receptor": {"target": "A2A receptor (Sus scrofa, UniProt K9IW67)", "sequence (K9IW67 1-409)": "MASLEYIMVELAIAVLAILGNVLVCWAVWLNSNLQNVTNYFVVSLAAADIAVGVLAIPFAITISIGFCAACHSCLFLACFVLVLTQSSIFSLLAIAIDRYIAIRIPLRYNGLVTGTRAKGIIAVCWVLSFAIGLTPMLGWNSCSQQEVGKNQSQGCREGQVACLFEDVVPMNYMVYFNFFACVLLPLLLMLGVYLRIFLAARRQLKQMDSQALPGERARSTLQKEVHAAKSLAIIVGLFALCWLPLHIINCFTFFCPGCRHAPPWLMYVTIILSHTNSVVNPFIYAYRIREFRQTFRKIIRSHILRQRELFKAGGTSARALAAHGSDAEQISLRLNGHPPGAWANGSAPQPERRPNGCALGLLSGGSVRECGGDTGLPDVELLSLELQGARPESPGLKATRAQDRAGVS", "experiment": "Affinity for the A2A receptor in a pig striatum membrane prep (displacement of tritiated ZM 241385)", "assay_type": "binding", "conditions": "pig striatal membranes, tritiated ZM 241385 2 nM, 23 C 2 h; read-out: A2a Ki", "method": "Compounds of this invention were assayed to determine their affinity for the A2A receptor in a pig striatum membrane prep. Briefly, 0.2 mg of pig striatal membranes were treated with adenosine deaminase and 50 mM Tris buffer (pH=7.4) followed by mixing. […] After incubation at 23 C for 2 h, then the solutions were filtered using a membrane harvester using multiple washing of the membranes (3×). The filter disks were counted in scintillation cocktail affording the amount of displacement of tritiated ZM by the competitive binding compounds of this invention. Greater than a 5 point curve was used to generate IC50's and the number of experiments is indicated in the column marked in Table 1 below."}, "A2A AdoR [6]": {"target": "A2A AdoR (Rattus norvegicus, UniProt P30543)", "sequence (P30543 whole entry, the tested form may be a part)": "as the sequence (P30543 whole entry, the tested form may be a part) above", "experiment": "Increase of coronary conductance in rat isolated perfused hearts", "description": "as §3\nCoronary perfusion pressure (CPP) was measured using a pressure transducer, connected to the aortic cannula via a T-connector positioned approximately 3 cm above the heart. Coronary perfusion pressure was monitored throughout the experiment and recorded either on a chart recorder (Gould Recorder 2200S) or a computerized recording system (PowerLab/4S, ADinstruments Pty Ltd, Australia). Only hearts with CPP ranging from 60 to 85 mmHg (in the absence of drugs) were used in the study.\nOne concentration was made from the stock solution by dilution into saline to yield solution of either 2×10^−4 or 2×10^−5 M. These solutions were injected into the perfusion line of the apparatus as boluses of 20 μl. In some experiments the solutions were placed into a 30 ml glass syringe and the drugs were infused at rates necessary to achieve the desired perfusate concentrations (e.g, 10, 100 nM, etc).\nHearts were instrumented for continuous recording of coronary perfusion pressure (A2A response) and atrioventricular (A-V) conduction time or S-H interval (A1 response)."}}, "note": "Like-named read-outs stand apart in the source and are kept apart here.", "data": [{"smiles": "CCCCCn1cc(-c2nc(N)c3ncn([C@@H]4O[C@H](CO)[C@@H](O)[C@H]4O)c3n2)cn1", "note": "[Compound 18, (4S,2R,3R,5R)-2-[6-amino-2-(1-pentylpyrazol-4-yl)purin-9 yl]-5-(hydroxymethyl)oxolane-3,4-diol]", "values": [{"measurement": "effect on A-V nodal conduction time", "setting": "A1 AdoR [1]", "value": "did not prolong"}, {"measurement": "t 0.5, time to 50% reversal of the increase in coronary conductance", "setting": "A2A adenosine receptor", "value": "3.4 ± 0.5", "unit": "min"}, {"measurement": "t 0.9, time to 90% reversal of the increase in coronary conductance", "setting": "A2A adenosine receptor", "value": "8.4 ± 2.2", "unit": "min"}, {"measurement": "Ki", "setting": "human A1 AdoR; read-out: Binding Affinity Ki, CHO-hA1AR", "value": 5840, "unit": "nM"}, {"measurement": "Ki", "setting": "human A1 AdoR; read-out: Binding Affinity pKi ± SEM, CHO-hA1AR (converted)", "value": 5750, "unit": "nM"}, {"measurement": "CBF (\"Fold Increase\") above baseline, maximal", "setting": "A2A AdoR [2]", "value": "3.33 ± 0.58", "unit": "fold"}, {"measurement": "t0.5, time to 50% reversal of the increase in coronary blood flow", "setting": "A2A AdoR [2]", "value": "3.1 ± 0.9", "unit": "min"}, {"measurement": "t0.9, time to 90% reversal of the increase in coronary blood flow", "setting": "A2A AdoR [2]", "value": "12.0 ± 1.0", "unit": "min"}, {"measurement": "EC50", "setting": "A2A AdoR [3]", "value": "203 ± 22", "unit": "nM"}, {"measurement": "greater affinity for A2A than A1 AdoR", "setting": "human A2A AdoR; A2A vs A1 AdoR", "value": "> 2", "unit": "fold"}, {"measurement": "Ki", "setting": "human A2A AdoR; Binding Affinity Ki", "value": 2900, "unit": "nM"}, {"measurement": "Ki", "setting": "human A2A AdoR; Binding Affinity pKi ± SEM", "value": 2880, "unit": "nM"}, {"measurement": "effect on S-H interval", "setting": "A1 AdoR [4]", "value": "no prolongation"}, {"measurement": "agonist efficacy to cause coronary vasodilation", "setting": "A2A AdoR [5]", "value": "full agonists"}, {"measurement": "less potent than the prototypical agonist CGS21680", "setting": "A2A AdoR [5]; relative to CGS21680", "value": 10, "unit": "fold"}, {"measurement": "Ki", "setting": "A2A receptor", "value": "7090 ± 780", "unit": "nM"}, {"measurement": "EC50", "setting": "A2A AdoR [6]; EC50 to increase coronary conductance in rat hearts, Example 7, n=5 rats", "value": "68.9 ± 9.6", "unit": "nM"}, {"measurement": "EC50", "setting": "A2A AdoR [6]; Potency (EC50) to increase coronary conductance, Rat, rat isolated perfused hearts, Table 3", "value": "67.9 ± 16.7", "unit": "nM"}, {"measurement": "effect on coronary conductance", "setting": "A2A AdoR [6]; isolated perfused hearts (36 rats and 18 guinea pigs), atrial cycle length 340 msec", "value": "concentration-dependent increase"}, {"measurement": "relative potency in increasing coronary conductance", "setting": "A2A AdoR [6]; isolated perfused hearts, rat and guinea pig", "value": "about as potent as adenosine"}]}]}
